Experimental data taken from PubChem BioAssay (NCI).
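Growth conditions: 96-well plates. Treatment: test compound, 48 hours, 5 concentrations. Analysis: linear interpolation between bracketing concentrations; unreached endpoints set to highest concentration. GI50: concentration for 50% inhibition of growth. TGI marks complete inhibition of growth.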

Legend:
Experiment in all cases: NCI anticancer screen, dose series, 48 h
HOP-62 NSCLC = tested on: HOP-62 NSCLC
MALME-3M melanoma = tested on: MALME-3M melanoma
OVCAR-3 ovarian = tested on: OVCAR-3 ovarian
OVCAR-5 ovarian = tested on: OVCAR-5 ovarian
RPMI-8226 leukemia = tested on: RPMI-8226 leukemia
SF-539 CNS = tested on: SF-539 CNS
SK-MEL-28 melanoma = tested on: SK-MEL-28 melanoma
SN12C renal = tested on: SN12C renal
T-47D breast = tested on: T-47D breast
EKVX NSCLC = tested on: EKVX NSCLC

Row | SMILES | TGI (HOP-62 NSCLC) | TGI (MALME-3M melanoma) | TGI (OVCAR-3 ovarian) | TGI (OVCAR-5 ovarian) | TGI (RPMI-8226 leukemia) | TGI (SF-539 CNS) | TGI (SK-MEL-28 melanoma) | TGI (SN12C renal) | TGI (T-47D breast) | GI50 (EKVX NSCLC) | TGI (EKVX NSCLC) | GI50 (HOP-62 NSCLC) | GI50 (MALME-3M melanoma) | GI50 (OVCAR-3 ovarian) | GI50 (OVCAR-5 ovarian) | GI50 (SF-539 CNS) | GI50 (SK-MEL-28 melanoma) | GI50 (SN12C renal) | GI50 (RPMI-8226 leukemia) | GI50 (T-47D breast)
1 | CN1C(=O)c2cccc3cc([N+](=O)[O-])cc(c23)C1=O | > 10 µM | > 10 µM | > 10 µM | > 10 µM | > 10 µM | > 10 µM | > 10 µM | > 10 µM | > 10 µM | – | – | – | – | – | – | – | – | – | – | –
2 | CC(=O)[O-].CCN(CC)c1ccc(C=NCCN=Cc2ccc(N(CC)CC)cc2[O-])c([O-])c1.[Mn+3] | 39.1 µM | 35.2 µM | 44.1 µM | 41 µM | – | 37.4 µM | 37.8 µM | 48.8 µM | – | 39.6 µM | > 100 µM | 19.2 µM | 18.4 µM | 21 µM | 21.3 µM | 20.9 µM | 19.2 µM | 20.9 µM | – | –
3 | Cc1nc(N)sc1C(=O)/C=C\c1ccc2c(c1)OCO2 | > 100 µM | > 100 µM | > 100 µM | > 100 µM | > 100 µM | > 100 µM | > 100 µM | > 100 µM | – | – | > 100 µM | – | – | – | – | – | – | – | – | –
4 | O=C1OC(C(O)CO)C(=O)C1=O (stereo unspecified) | 8570 µM | 4870 µM | – | 4330 µM | 8420 µM | 5440 µM | > 10000 µM | 7090 µM | 7700 µM | – | – | 3720 µM | 2070 µM | – | 2050 µM | 2490 µM | > 10000 µM | 2530 µM | 2460 µM | 2790 µM
5 | Cc1cccc(N2CCN(C(=S)c3ccc4c(c3)OCO4)CC2)c1 | > 100 µM | – | 2.87 µM | > 100 µM | > 100 µM | > 100 µM | > 100 µM | – | > 100 µM | 7.12 µM | > 100 µM | 0.883 µM | – | 0.359 µM | 5.41 µM | 1.5 µM | 2.19 µM | – | 8.01 µM | 0.934 µM
6 | Cc1cccc(NC(=O)C(=O)C(C(=O)c2ccc3ccccc3c2)C2OC(=O)c3ccccc32)c1C (stereo unspecified) | 24.7 µM | 21.7 µM | 50.1 µM | 54.7 µM | 43.2 µM | 22.3 µM | 39 µM | 40.4 µM | – | – | 77.8 µM | – | – | – | – | – | – | – | – | –
7 | CCC[CH2][Sn]1([CH2]CCC)[O]CC(CN2CCCC2)[O]1 (stereo unspecified) | 73.8 µM | 17.4 µM | 25.7 µM | 27.7 µM | 44.1 µM | 38.9 µM | 34.9 µM | 31 µM | – | 12.9 µM | 33.2 µM | 34.1 µM | 4.59 µM | 13 µM | 12.9 µM | 16.9 µM | 19 µM | 16.7 µM | 7.44 µM | –
8 | COC1(OC)C2(Cl)C(Cl)=C(Cl)C1(Cl)C1C=CC=CC12 (stereo unspecified) | > 100 µM | > 100 µM | > 100 µM | > 100 µM | > 100 µM | > 100 µM | > 100 µM | > 100 µM | – | – | > 100 µM | – | – | – | – | – | – | – | – | –
9 | Cc1cccc(NC(=O)/C(=N\NC(C)(C)C)C2NC(=S)NC2=O)c1C (stereo unspecified) | > 100 µM | > 100 µM | > 100 µM | > 100 µM | > 100 µM | > 100 µM | – | – | – | – | > 100 µM | – | – | – | – | – | – | – | – | –
10 | COc1ccccc1CNCCCN1C(=O)c2ccc3c4c(ccc(c24)C1=O)C(=O)N(CCCOCCCCOCCCN)C3=O | 2.73 µM | – | 0.754 µM | 3.61 µM | 5.21 µM | 3.3 µM | 3.05 µM | 2.78 µM | 3.34 µM | 1.19 µM | 2.52 µM | 1.32 µM | – | 0.297 µM | 1.88 µM | 1.68 µM | 1.59 µM | 1.24 µM | 1.72 µM | 0.926 µM
11 | Cn1c(=O)c(C(c2ccc([N+](=O)[O-])cc2)c2c(O)c3ccccc3n(C)c2=O)cc2ccccc21 (stereo unspecified) | 75.2 µM | 73.2 µM | > 100 µM | 92.7 µM | > 100 µM | > 100 µM | > 100 µM | > 100 µM | – | – | > 100 µM | – | – | – | – | – | – | – | – | –
12 | COC(=O)/C(=N\Nc1nnc(C)n1N)C(C#N)c1ccc(Cl)cc1 (stereo unspecified) | > 100 µM | > 100 µM | > 100 µM | > 100 µM | > 100 µM | > 100 µM | > 100 µM | > 100 µM | – | – | > 100 µM | – | – | – | – | – | – | – | – | –
13 | CCCCC(O)(c1ccc(Cl)cc1)C(CN1CCOCC1)c1ccc(Cl)cc1 (stereo unspecified) | 34.5 µM | 33.8 µM | 28 µM | 23.7 µM | 36.2 µM | 36.6 µM | 33.9 µM | 28.5 µM | 25 µM | – | – | 16.3 µM | 15.6 µM | 14.5 µM | 10.7 µM | 17 µM | 15.9 µM | 12.6 µM | 10.4 µM | 11.3 µM
14 | COc1cc(C(C)O)c[n+](CCc2c[nH]c3ccccc23)c1 (stereo unspecified) | > 100 µM | > 100 µM | > 100 µM | – | > 100 µM | > 100 µM | – | > 100 µM | – | – | > 100 µM | – | – | – | – | – | – | – | – | –
15 | Cc1ccn2c(c1)nc1nc3ccccc3nc12 | > 100 µM | – | > 100 µM | > 100 µM | > 100 µM | > 100 µM | > 100 µM | – | – | – | > 100 µM | – | – | – | – | – | – | – | – | –
16 | NCCCCN(CCCN)/[N+]([O-])=N\O | > 100 µM | > 100 µM | > 100 µM | > 100 µM | > 100 µM | > 100 µM | > 100 µM | > 100 µM | – | – | – | – | – | – | – | – | – | – | – | –
17 | CCCCCCCC/C=C/CCCCCCCC(=O)OC[C@H]1O[C@@H](n2ccc(N)nc2=O)C(F)(F)[C@@H]1O | – | > 100 µM | > 100 µM | > 100 µM | > 100 µM | 1.17 µM | > 100 µM | > 47.2 µM | > 100 µM | – | – | < 0.0209 µM | 0.0463 µM | 8.86 µM | 0.724 µM | < 0.0183 µM | > 51.1 µM | 0.0388 µM | 0.128 µM | 0.152 µM
18 | C[C@@]12CC=C3c4nc(Nc5cccc(O)c5)sc4CC[C@]3(C)[C@H]1CC[C@]1(C)C(=O)CC[C@@H]21 | 8.12 µM | – | 3.1 µM | 7.26 µM | 4.52 µM | 1.52 µM | – | – | 8.3 µM | 5.93 µM | 83.3 µM | 2.75 µM | – | 1.66 µM | 2.58 µM | 0.387 µM | – | – | 0.669 µM | 2.61 µM
